In article PMC3332081, “Cysteamine Suppresses Invasion, Metastasis and Prolongs Survival by Inhibiting Matrix Metalloproteinases in a Mouse Model of Human Pancreatic Cancer” (PLoS ONE, 2012):

Experiments:
MMP-12 [1] = target: T1, MMP-12 (Homo sapiens, UniProt P39900); assay: fluorimetric MMP inhibitor profiling, MMP-12; assay type: biochemical; conditions: 30 minutes preincubation, fluorogenic substrate
T1 construct: purchased Enzo Life Science, Farmingdale, NY
Method: (§1) After administration of fluorogenic substrate, a velocity of fluorescent increase was measured using excitation/emission = 320/405 nm.

[2] = set-up: method as in PMID 11060801; conditions: cited from earlier work
MMPs = assay: fluorimetric MMP inhibitor profiling, span over all MMPs; assay type: biochemical; conditions: MMP-1, -2, -3, -7, -8, -9, -10, -12, -13, -14; read-out: IC50 against each MMP enzymatic activity (span over the MMPs)
Method: as §1

[3] = tested on: pancreatic cancer cell lines; assay: matrigel invasion assay; assay type: cell-based, human
Method: Cell invasion was assayed in BD BioCoat Matrigel invasion chambers (BD Biosciences; 24 wells, 8 µm pore size) as described previously. Briefly, cells were incubated with different concentrations of cysteamine (0–5 mM) for 24 hours. Non-invaded cells were removed from the upper surface of the membrane with a cotton swab, and cells on the lower surface of the membrane were fixed and stained with H&E. Three random fields per chamber were counted. Data were shown as mean ± S.D. of triplicate determinations.

[4] = tested on: pancreatic cancer cell lines; assay: cell migration (wound healing) assay; assay type: cell-based, human
Method: Cell migration assay is a classical wound healing assay. For this assay, cells were cultured in 10 cm petri dishes until they were completely confluent. Cell monolayers were scraped with a sterile yellow micropipette tip and washed with PBS three times; the cells were then cultured in medium containing 0–5 mM of cysteamine for 24 hours. Five random fields were selected and pictures were taken using an inverted microscope. The average area (mm^2) of the gap between the cell layers was calculated using IPLab imaging software (BD Biosciences-Bioimaging, Rockville, MD).

HS766T [5] = assay: cell viability assay (trypan blue count), HS766T; assay type: cell-based, human; conditions: 24 and 48 hour treatment, viable cell count
Method: (§2) Cell viability of pancreatic cancer cell lines was measured by counting viable cell numbers. Briefly, 3×10^5 cells were seeded per well in a 6-well plate with 2.0 milliliter complete medium and incubated overnight for plating. The cells were treated with different concentrations of cysteamine for 24–48 hours. After incubation, cells were detached with trypsin, washed and stained with 0.4% trypan blue. Cell number was manually counted using a hemocytometer and presented as number of viable cells per milliliter.

MIA-PaCa2 [6] = assay: cell viability assay (trypan blue count), MIA-PaCa2; assay type: cell-based, human
Method: as §2

[7] = tested on: total MMPs activity in pancreatic cancer cell lines; assay: total MMPs activity in lysates of treated cells (fluorogenic substrate); assay type: cell-based, human; conditions: two representative pancreatic cancer cell lines, 0–5 mM, 24 hours
Method: (§3) MMPs activity was measured by Mca-KPLGL-Dpa-AR-NH2 Fluorogenic Peptide Substrate (R&D systems, Emeryville, CA). Total cell protein from each pancreatic cancer cell line was collected using lysis buffer (containing 50 mM Tris-HCl, 10 mM CaCl2, 0.05% Brij35 and 0.25% Triton-X) without an MMP inhibitor. Substrate and 10 µg of total cell protein in the buffer were mixed in a black-wall 96-well plate. After 1 hour incubation, fluorescence units were determined using excitation/emission = 320/405 nm.

MMP-9 [8] = assay: MMP-9 protein level in treated cells (ELISA); assay type: cell-based, human; conditions: 5 mM (highest concentration), 24 hours, both cell lines
Method: (§4) The MMP-9 protein level was determined using Human total MMP-9 DuoSet kit (R&D systems, Emeryville, CA) following the manufacturer's instruction. Ten microgram of total protein was aliquoted in each well and the MMP-9 concentration was determined by the colorimetric method.

MMP-9 [9] = assay: MMP-9 mRNA in treated cells (qRT-PCR); assay type: cell-based, human; conditions: 5 mM (highest concentration), 24 hours, both cell lines
Method: (§5) Quantitative reverse transcription-PCR (qRT-PCR) was performed as described previously using QuantiTect SYBR Green PCR Kits (QIAGEN, Valencia, CA). Gene specific primers for human MMP-9, MMP-12, MMP-14 and β-actin were either purchased from QIAGEN or synthesized at the CBER core facility. Gene expression was normalized to β-actin before the fold change in gene expression was determined.

MMP-12 [10] = assay: MMP-12 mRNA in treated cells (qRT-PCR); assay type: cell-based, human; conditions: 24 hours, highest concentration
Method: as §5

MMP-14 = MMP-14 mRNA in treated cells (qRT-PCR); assay type: cell-based, human; conditions: 24 hours, highest concentration
Method: as §5

MMP-9 [11] = assay: gelatin gel zymography of treated cells; assay type: cell-based, human; conditions: cell lysates after 24 hours
Method: (§6) Gelatin gel zymography was performed on cell lysates from HS7666 and MIA-PaCa2 pancreatic cancer cell line with or without culture with different concentration of cysteamine essentially as described by D'Angelo et al. Briefly, 50 µg of total protein was electrophoresed on 10% SDS-PAGE containing 0.1% gelatin as substrate. After washing with 1% Triton X-100 in 50 mM Tris/HCl, pH 7.5 for 1 hr to remove SDS, the gels were incubated overnight at 37 °C in 50 mM Tris/HCl, pH 7.5, containing 150 mM NaCl, 10 mM CaCl2 and 0.1% Triton X-100, prior to staining with simply blue safe stain. The gels were washed with deionized water at room temperature. […] Relevant band intensities were quantified by scanning densitometric analysis and normalized to cell number.

HS766T [12] = assay: orthotopic pancreatic cancer model, HS766T; assay type: in vivo, nude nu/nu mice
Method: (§7) Female nude nu/nu mice between ages 5 and 6 weeks were maintained in a barrier facility in HEPA-filtered rack. All animal studies were conducted under approved protocol #2000–06 by the CBER Institutional Animal Care and Use Committee in accordance with the principles and procedures outlined in the NIH Guideline for the Care and Use of Laboratory Animals. For orthotopic tumor cell injection, the pancreas was carefully exposed, and 2.0×10^6 of MIA-PaCa2 and HS766T cells were injected into the organ. The pancreas was then returned to the peritoneal cavity, and the abdominal wall and skin were closed with skin clips,[30]. From day 4 after tumor implantation, increasing doses of cysteamine (0, 25, 100, or 250 mg/kg/day) were subcutaneously injected twice a day until the end of the experiment. At day 30, mice were sacrificed and the number of metastatic nodules visible by naked eye and whose sizes were >5 mm in diameter counted. The total weight of primary tumor and metastatic nodules were also measured. Pictures were taken immediately after sacrificing the animals. Additionally, mouse survival time was monitored in an independent experiment. Mice were sacrificed when they had severe ascites or cachexia. Mice in both tumor models were weighed at day 10 and day 25 after Cysteamine treatment.

MIA-PaCa2 [13] = assay: orthotopic pancreatic cancer model, MIA-PaCa2; assay type: in vivo, nude nu/nu mice
Method: as §7

[14] = safety in tumor-bearing mice (body weight, serum enzymes, histology); assay type: in vivo, nude nu/nu mice
Method: as §7
Mouse blood was collected from the tail vein. Serum levels of alanine aminotransferase (ALT), creatine kinase (CK), aldolase and creatinine (Cr) were measured using different kits obtained from Pointe Scientific, Inc. (Canton, MI) and Caldon Biotech, Inc. (Vista, Ca), following the manufacturer's instruction.

[15] = tested on: MMPs activity in primary orthotopic tumors (HS766T and MIA-PaCa2); assay: MMP activity in primary orthotopic tumors (fluorogenic substrate); assay type: in vivo, nude nu/nu mice; conditions: 100 and 250 mg/Kg, day 30
Method: as §3
(§8) When mice were sacrificed at day 30, primary tumors were collected. For extraction of total protein, the tumor was soaked with lysis buffer and homogenized using TissueRuptor (QIAGEN); the supernatant was collected. Total RNA was extracted using FastRNA pro green kit (MP Biomedicals, Solon, OH) following the manufacturer's instructions. MMP activity, gelatin hydrolyzing MMP activity and the mRNA and protein levels of MMP-9 were determined as mentioned above.

MMP-9 [16] = assay: MMP-9 mRNA in primary tumors (qRT-PCR); assay type: in vivo, nude nu/nu mice; conditions: tumors harvested at day 30
Method: as §5, §8

MMP-9 [17] = assay: MMP-9 protein in primary tumors (ELISA); assay type: in vivo, nude nu/nu mice; conditions: tumors harvested at day 30
Method: as §4, §8

MMP-9 [18] = assay: zymography of primary tumors; assay type: in vivo, nude nu/nu mice; conditions: tumors harvested at day 30
Method: as §6, §8

[19] = oral, every 6 hours at 60 to 90 mg/kg of body weight per day; cited from earlier work
[20] = cited from earlier work

T1 sequence (P39900 106-470): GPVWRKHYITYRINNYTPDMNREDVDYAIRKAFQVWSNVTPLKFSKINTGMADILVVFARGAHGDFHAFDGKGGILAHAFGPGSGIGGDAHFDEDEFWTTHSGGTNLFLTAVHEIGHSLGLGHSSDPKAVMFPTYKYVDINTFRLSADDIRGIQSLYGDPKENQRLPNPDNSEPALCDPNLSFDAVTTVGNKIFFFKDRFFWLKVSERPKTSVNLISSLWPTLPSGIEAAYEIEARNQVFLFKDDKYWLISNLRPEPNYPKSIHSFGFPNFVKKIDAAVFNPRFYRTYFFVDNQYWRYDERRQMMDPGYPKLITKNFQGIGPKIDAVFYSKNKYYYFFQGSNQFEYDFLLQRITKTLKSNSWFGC

CNC(=O)[C@H](Cc1ccccc1)NC(=O)[C@H](CC(C)C)[C@H](CSc1cccs1)C(=O)NO [Batimastat]
IC50 (MMP-12 [1]): 12 nM
oral bioavailability [2]: poor oral bioavailability

NCCS [Cysteamine]
IC50 (MMPs): 38 to 460 µM
lowest concentration that significantly inhibited cell invasion ([3]; all 10 pancreatic cancer cell lines, 24 hours): 0.05 mM
concentration that sufficiently inhibited cancer cell invasion in vitro ([3]; in vitro): 50 µM
concentration at which cell migration was significantly inhibited ([4]; all 10 cell lines, 24 hours): ≥ 0.05 mM
concentration that sufficiently inhibited cancer cell migration in vitro ([4]; in vitro): 50 µM
concentration showing cell toxicity (HS766T [5]): > 12.5 mM
concentration showing cell toxicity (MIA-PaCa2 [6]; MIA-PaCa2, 24 and 48 hour treatment, viable cell count): > 12.5 mM
concentrations that caused no toxicity to cells (abstract) (MIA-PaCa2 [6]; cells not named in the abstract, viability tested in MIA-PaCa2): < 25 mM
total MMP activity in treated cells [7]: inhibited MMP activity
MMP-9 protein level (MMP-9 [8]): modestly increased
MMP-9 mRNA level (MMP-9 [9]): modestly increased
MMP-12 mRNA (MMP-12 [10]): modest increase
MMP-14 mRNA (MMP-14): modest increase
zymographic gelatin hydrolyzing activity, pro and active MMP-9 (MMP-9 [11]): decreased significantly in a dose dependent manner
HS766T metastasis number, average (HS766T [12]; 250mg/kg s.c., day 30, lesions ≥ 5 mm, average of 5 mice): 3.6
decrease of the number of metastases of HS766T tumor (HS766T [12]; 250 mg/kg/day s.c., day 30, versus control): ~90%
development of ascites (HS766T [12]; HS766T model, 100 and 250 mg/kg/day): no mice developed ascites
dose at which mouse survival time was significantly prolonged (HS766T [12]; HS766T model, Kaplan-Meier, s.c. twice a day from day 4): ≥ 100 mg/kg/day
size and weight of the primary tumors, control versus treated groups (HS766T [12]; HS766T model, day 30): did not show any difference
development of ascites (MIA-PaCa2 [13]; MIA-PaCa2 model, 100 and 250 mg/kg/day): no mice developed ascites
dose at which mouse survival time was significantly prolonged (MIA-PaCa2 [13]; MIA-PaCa2 model, Kaplan-Meier, s.c. twice a day from day 4): ≥ 100 mg/kg/day
size and weight of the primary tumors, control versus treated groups (MIA-PaCa2 [13]; MIA-PaCa2 model, day 30): did not show any difference
decrease of the total weight of metastatic nodules of MIA-PaCa2 tumor (MIA-PaCa2 [13]; highest dose (250 mg/kg/day) s.c., day 30, versus control): ~90%
organ toxicity by histological examination ([14]; liver, kidney, brain, heart, lung, day 30): no organ toxicity was detected
dose tolerated without visible, biochemical or histological evidence of toxicity ([14]; mice, s.c.): up to 250 mg/kg/day
serum alanine aminotransferase (ALT) ([14]; mouse, in vivo): no significant differences
serum aldolase ([14]; mouse, in vivo): no significant differences
serum creatine kinase (CK) ([14]; mouse, in vivo): no significant differences
serum creatinine (Cr) ([14]; mouse, in vivo): no significant differences
MMPs activity in primary orthotopic tumors [15]: decreased MMPs activity
MMP-9 mRNA level in primary tumors (MMP-9 [16]): did not affect
MMP-9 protein level in primary tumors (MMP-9 [17]): did not affect
zymography for MMP-9, gelatinase activity in tumors (MMP-9 [18]): dose dependent decrease in gelatinase activity
cysteamine plasma level [19]: ~50 µM
adverse effects in subjects [20]: only gastrointestinal symptoms

CNC(=O)[C@@H](NC(=O)[C@H](CC(C)C)[C@H](O)C(=O)NO)C(C)(C)C [marimastat]
clinical toxicity ([20]; higher dosage, patients with breast cancer metastasis): high musculoskeletal toxicities
